Assay results taken from patent EP0479888B1, “IMPROVED BUILDER-CONTAINING AQUEOUS CLEANER/DEGREASER MICROEMULSION COMPOSITIONS” (BUCKEYE INTERNATIONAL, INC., priority 1989, dated 1991).

Settings: water

Compound: CCCCOC(C)=O [n-butyl acetate]
- aqueous ambient temperature solubility: 0.7 wt.%
